What was measured:
[1] = tested on: platelet aggregation in vivo (bleeding time in mouse tail tips); test: In vivo bleeding time in mouse tail tips; parameters: species or system mice; details: oral, pretreatment time 1 h, Aspirin 100 mg/kg
Protocol: Wintergreen-derived gaultherin containing extracts were also shown to inhibit platelet aggregation in vivo. […] The gaultherin-containing extract prolonged mouse bleeding times assessed at 1, 3, and 6 hours after treatment. Therefore, gaultherin-containing extracts prevent platelet aggregation in vitro and in vivo. In vivo assay: The gaultherin-containing extract was mixed with vehicle (2% Tween 80/distilled water) and orally administered to 5 ICR […] (22+2 g) at the doses given in Table V. After 1, 3, or 6 hours of treatment, the mice were suspended in holders and 0.5 mm of the tip of each tail was transected and immersed in a test tube containing saline at 37° C. The bleeding time is defined as the time required for the bleeding to cease for a period of greater than 15 seconds. Prolongation of the bleeding time over that of control animals was then calculated. Aspirin was used as the standard to ensure that the assay was performing as expected.

[2] = Gastric irritation in fasted rats; assay type: in vivo, Wistar rats; details: oral gavage, overnight-fasted rats, 4 h after treatment, extract 5000 mg/kg; for Gastric irritation Total Score: total for three rats (0-4 each), aspirin 150 mg/kg (equal total salicylate)
Protocol: Wintergreen-derived, gaultherin-containing extract and aspirin were given by oral gavage to overnight-fasted Wistar rats (200+/−20 g). The 5000 mg/kg dose of wintergreen extract and the 150 mg/kg dose of aspirin used in the experiment contain equal total amounts of salicylate. Four hours after treatment, the stomach lining was harvested and scored for gastric irritation [Guth et al., Gastroenterology, 76: 88–93 (1979)]. A score of zero was given for no sign of hyperaemia (excess blood or engorgement with blood) or bleeding. A score of one was given when hyperaemia was evident. A score of two was given when some spot bleeding was observed. A score of three was assigned for any hyperaemia and spot bleeding and a score of four for hyperaemia and spot bleeding occurred over the entire stomach. The total aspirin score for three rats was nine as all three rats experienced some hyperaemia and spot bleeding. The total wintergreen-derived, gaultherin-containing extract score was two because only two of the three rats were noted to have some hyperaemia. Based on these responses, the gastric irritation caused by wintergreen extract was substantially less (approximately five times lower) than that caused by aspirin.

[3] = Rat hind paw inflammatory (edema and hyperalgesia) model, Freund's adjuvant; assay type: in vivo, Sprague-Dawley rats
Protocol: Wintergreen-derived gaultherin-containing extract was administered by per-oral gavage at human dose equivalents of 200 mg and 400 mg per day and Naproxen was administered at a dose of 440 mg per day. Male Sprague-Dawley rats (300–350 grams) were treated for 5 days by gavage. Inflammation (edema and hyperalgesia) was induced 3 days prior to treatment through intraplantar injection of Freund's adjuvant (containing 170 μg Mycobacterium butyricum). Edema was determined by physical measurements of paw thickness and ankle width. Pain tolerance (i.e., pain reduction) was mechanically assessed via digital Von Frey determinations using a series of measurements at 6 locations on the surface of a paw. [Ren et al., ILAR Journal, 40(3):1–12 (1999), Kayser et al., Pain, 28:99–107 (1987)] Measurement terminated at the point of paw withdrawal, auditable indication of discomfort, or animal shuddering. Measurements were performed on left and right paws.

CC(=O)Oc1ccccc1C(=O)O [Aspirin, acetylsalicylic acid]
Avg. Bleed Time, Exp. 2 [1]: 114 s | Avg. Bleed Time, Exp. 1 ([1]; W. Extract 5000 mg/kg): 120 s | Prolongation of bleeding time, Exp. 1 ([1]; W. Extract 5000 mg/kg, over control animals): 100% | Prolongation of bleeding time, Exp. 2 ([1]; over control animals): 73% | Gastric irritation Total Score [2]: 9 | Gastric irritation Total Score ([2]; listed as aspirin): nine | Gastric irritation Response ([2]; aspirin 150 mg/kg): 100%

COC(=O)c1ccccc1O[C@@H]1O[C@H](CO[C@@H]2OC[C@@H](O)[C@H](O)[C@H]2O)[C@@H](O)[C@H](O)[C@H]1O [Gaultherin, gaultherin]
Edema reduction ([3]; 200 mg/day (human dose equivalent) for 5 days, per-oral gavage): 12.2% | Edema reduction ([3]; 400 mg/day (human dose equivalent) for 5 days, per-oral gavage): 16.9% | improvement in pain tolerance (digital Von Frey) ([3]; human dose equivalent of 200 mg per day, 5 days, gavage): 6.7% | improvement in pain tolerance (digital Von Frey) ([3]; human dose equivalent of 400 mg per day, 5 days, gavage): 9.9%

COc1ccc2cc([C@H](C)C(=O)O)ccc2c1 [Naproxen]
anti-inflammatory and analgesic effect ([3]; 440 mg per day, 5 days, gavage): predictable anti-inflammatory and analgesic effect | Edema reduction ([3]; 440 mg/day for 5 days, gavage): 28%

Reference: patent publication US7033618B2, “Methods of administering gaultherin-containing compositions” (Rutgers University, The State University of New Jersey, priority 1999, dated 2006)
